This note sets out measurements from PMC10849753, “Antiproliferative activity of platinum(II) and copper(II) complexes containing novel biquinoxaline ligands” (Metallomics: Integrated Biometal Science, 2024).

In this experiment the test system is A172, LN229, U87, A549, Hela, PC-3, and MDA-231 cells. In words: ROS production, DCFDA assay, all used cell lines. It counts as cell-based, human. The following applies: positive control at 500 μM concentration. On the procedure:
The reactive oxygen species (ROS) formation on the selected cell lines upon exposure to the synthesized Cu(II) and Pt(II) complexes was investigated using the oxidation-sensitive dye, 2ʹ,7ʹ-dichlorofluorescein diacetate (DCFDA, #D6883 Sigma-Aldrich). The cell lines (A172, LN229, U87, HeLa, MDA-231, PC-3, A549, and CHO-K1) were seeded (6 × 10^3 cells/well) into the 96-well plates and incubated at 37°C and 5% CO2 for 24 h. After that, the Cu(II) and Pt(II) complexes, at a concentration range of 6.25 to 100 μM, were added to the cell monolayers. Hydrogen peroxide (H2O2), at concentrations from 50 to 500 μM, was utilized as a positive control. The following day, 5 μM of DCFDA in PBS was added to the cell monolayers and, then, the plate was incubated for 30–45 min. Consequently, the fluorescence intensity was measured with 485 nm excitation and 535 nm emission wavelengths using a microplate reader. The fluorescence values of each treatment were normalized to the negative control, including only growth medium without any treatment. The assay was repeated in triplicate.

Turning to `OO` [H2O2, Hydrogen peroxide, reference compound], the ROS generation turned out to be 3 fold.
